Results on one molecule are retold here after patent US10258612B2, “Mitochondrial lipid permeable iron chelators for treating and preventing ischemia/reperfusion (I/R) injury in the heart following an ischemic event” (Northwestern University, priority 2015, dated 2019).

Molecules are shown by their SMILES. Entries after “also recorded” stand apart in the source; their conditions may differ.

In data set [1] the test system is wild-type mice subjected to I/R. As to the kind of experiment: Ischemia/reperfusion (I/R) injury in chelator-pretreated wild-type mice. The format is in vivo. How it is done:
(§1) To test the use of these iron chelators in the setting of I/R, mice were pretreated for a week with these chelators and then subjected to I/R or sham operation. Chelation was continued for two weeks after the operation. […] To rule out any changes of serum iron hematopoiesis that can account for the cardiac functional difference, we performed complete blood counts and measured serum iron parameters in wild-type mice treated with iron chelators for 3 weeks.
(§2) Mice were treated with 80 mg/kg BPD (Sigma) in normal saline solution daily or 50 mg/kg DFO (Sigma) in normal saline every other day via intraperitoneal injection. The dose of BPD was chosen based on its ability to modulate cardiac mitochondrial iron, and the dose of DFO was chosen according to previously published studies (Ichikawa et al., 2014). BPD was prepared as a 400 mg/ml stock solution in ethanol and diluted 1:100 in normal saline to working concentration. DFO was prepared as a 250 mg/ml stock in water and diluted 1:100 in normal saline to working concentration.
The procedure was performed as described previously (Wu et al., 2011).
Parasternal short- and long-axis views of the heart were obtained using a Vevo 770 high-resolution imaging system with a 30 MHz scan head. 2D and M-mode images were obtained and analyzed. Ejection fraction was calculated from M mode image using Teichholtz equation, and fractional shortening was directly calculated from end-systolic and end-diastolic chamber size from M-mode images.
At the time of tissue harvest, heart was excised and rinsed in phosphate buffered saline to remove excess blood on tissue and in ventricles. Hearts were then submerged into OTC compound and frozen in liquid nitrogen. For hearts with I/R injury, sections were collected 500 μm below suture line to capture the injured region. Sections were stained with hematoxylin and eosin for evaluation of general cardiac morphology and tissue organization. Masson Trichrome staining were used to visualize cardiac fibrosis. Fibrosis was quantified from low power microscope images by dividing the arc length of fibrotic scar to the circumference of left ventricle.
H9c2 cardiomyoblasts were cultured in DMEM (ATCC) supplemented with 10% FBS (Thermo) and Penicillin/Streptomycin (Cellgro). HEK293T cells were cultured in MEM (Cellgro) supplemented with 10% FBS, sodium pyruvate (Cellgro) and Penicillin/Streptomycin. […] Purified RNA was then reverse transcribed with Random Hexamer and Oligo dT(16) (Applied Biosystems) and amplified on a 7500 Fast Real-Time PCR system using Fast SYBR Green PCR Master Mix (Applied Biosystems). mRNA levels were calculated based on the difference of threshold Ct values in target gene and average Ct values of 18s, Actb, B2m, and Hprt in the same sample.

For data set [2], the system named is H9c2 cells. Kind of data set: Cytosolic and nuclear iron in H9c2 cells preloaded with radioactive 55Fe. The format is cell-based, rat. Particulars: H9c2 cells preloaded with 55Fe. How it is done: (§3) H9c2 cardiomyoblasts were cultured in DMEM (ATCC) supplemented with 10% FBS (Thermo) and Penicillin/Streptomycin (Cellgro). HEK293T cells were cultured in MEM (Cellgro) supplemented with 10% FBS, sodium pyruvate (Cellgro) and Penicillin/Streptomycin. Unless otherwise specified, cells were treated with 200 μM of DFO or 100 μM of BPD for two hours when indicated prior to addition of 600 μM of H2O2 when indicated for 6 hours. RNA isolation and qRT-PCR RNA was isolated using RNA-STAT60 (Tel-Test) according to the manufacturer's instructions, and subjected to DNAse I (Ambion) digestion to remove residual DNA. Purified RNA was then reverse transcribed with Random Hexamer and Oligo dT(16) (Applied Biosystems) and amplified on a 7500 Fast Real-Time PCR system using Fast SYBR Green PCR Master Mix (Applied Biosystems). mRNA levels were calculated based on the difference of threshold Ct values in target gene and average Ct values of 18s, Actb, B2m, and Hprt in the same sample.
For nuclear and cytosolic iron, cells were loaded with 280 nM of ^55Fe-NTA. Excess ^55Fe-NTA was washed off with cold PBS containing 200 μM DFO prior to chelator treatment. The nuclear and cytosolic fractions were isolated using NE-PER Nuclear and Cytoplasmic Extraction Reagents (Pierce) and the radioactivity was quantified with liquid scintillation.

Data set [3] has as its system H9c2 cells. As to the kind of experiment: Mitochondrial ROS (mitoSox) in H9c2 cells after hydrogen peroxide treatment. It counts as cell-based, rat. The settings on record: chelator pretreatment. How it is done:
as §3
Mitochondrial ROS levels in intact cells were quantified using MitoSox Red (Life Technologies). Briefly, cells were loaded with MitoSox to stain for mitochondrial ROS and Hoechst 33342 for nuclei counter stain. Images were obtained on a Zeiss AxioObserver.Z1 microscope and analyzed with ImageJ software (NIH). MitoSox signal in the nuclei was subtracted to exclude localization of the dye to the nuclei.

In data set [4] the test system is H9c2 cardiomyoblasts. Kind of data set: Mitochondrial labile (chelatable) iron by RPA fluorescence in H9c2 cells. The format is cell-based, rat. The protocol:
as §3
Tissue iron was measured colorimetrically by the formation of a complex with bathophenanthroline disulfonate or ferene-S as described previously (Ichikawa et al., 2012; Khechaduri et al., 2013). […] Quantitative measurement of labile iron was done according to previously described methods (Cabantchik et al., 1996; Petrat et al., 2002b). […]

Data set [5] relates to H9c2 cells. As to the kind of experiment: Mitochondrial membrane potential (TMRE) in H9c2 cells. The format is cell-based, rat. Particulars: H2O2. The protocol: as §3
Cells were stained with 5 nM of TMRE (Life Technology) and counter stained with Hoechst 33342. Images were obtained on a Zeiss AxioObserver.Z1 microscope and analyzed with ImageJ software (NIH).

A short description of data set [6]: Complete blood count and serum iron parameters in wild-type mice with chelator treatment. Particulars: iron chelators for 3 weeks, n = 5, mean±SEM. It counts as in vivo. The protocol: as §1, §2
Data set [7] has as its system H9c2 cells. As to the kind of experiment: H2O2-induced cell death in H9c2 cells. The format is cell-based, rat. The settings on record: chelator pretreatment, then H2O2. The protocol: as §3
For in vitro studies, cells were resuspended in 1× Annexin V buffer (BD) and then stained with Alexa Fluor 350 conjugated Annexin V (Life Technology) and propidium iodide (Sigma) according to the manufacturer's instructions and analyzed on a LSRII flow cytometer (BD).

With `c1ccc(-c2ccccn2)nc1` [BPD, 2,2′-bipyridyl], the “cardiac remodeling (tissue fibrosis) after I/R” value in data set [1] (mice pretreated for a week, H&E and Masson Trichrome staining) is “less cardiac remodeling compared to either vehicle- or DFO-treated mice”. For the same molecule, the “cardiac function after I/R / protection against I/R injury” value in data set [1] (mice pretreated for a week, chelation continued for two weeks after operation) is “significantly preserved cardiac function after I/R; also recorded: protected mice against I/R injury”. In addition, the “expression of Nppa, Nppb and Myh7 after I/R” value in data set [1] (mice pretreated for a week, subjected to I/R) is “attenuated the expression of Nppa, Nppb and Myh7”. For the same molecule, the “ROS production after I/R” value in data set [1] (mice pretreated with chelator) is recorded as “reduced ROS production”. Further, in data set [2], the cytosolic iron entry is on record as “significant decreases” and the nuclear iron result is “significant decreases”. For the same molecule, the “increase in mitochondrial ROS after hydrogen peroxide treatment (mitoSox)” value in data set [3] is reported as “significantly attenuated”. The “increase in mitochondrial labile iron after H2O2 treatment” value in data set [4] (chelator pretreatment, then 600 μM H2O2 for 6 hours) is “attenuated”. Moreover, the “chelatable / labile mitochondrial iron” value in data set [4] (two-hour pretreatment, 200 μM DFO or 100 μM BPD, no H2O2) was “decreased mitochondrial labile iron; also recorded: significantly reduced chelatable mitochondrial iron; also recorded: significantly lowered chelatable mitochondrial iron”. Further, in data set [5], the “mitochondrial membrane potential after oxidative stress” value is given as “prevented the significant decrease of mitochondrial membrane potential after oxidative stress”. In addition, in data set [6], the Hematocrit stood at 47.53 ± 1.84%, the Hemoglobin came out at 13.12 ± 0.30 g/dL, the “Iron Saturation” value is given as 15.25 ± 0.81 % and the MCH is 12.38 ± 0.53 pg. In data set [6], the MCHC is listed as 26.34 ± 1.21 g/dL, the MCV was 47.02 ± 0.36 fL, the Platelet is recorded as 1007 ± 236.72 10^3/μL and the RBC is 10.7 ± 0.62 10^6/μL. Moreover, in data set [6], the RDW was determined as 17 ± 0.41%, the “Serum Iron” value amounted to 44.40 ± 2.24 µg/dL, the “Total Iron Binding Capacity” value stood at 291.42 ± 4.63 µg/dL and the “Unsaturated Iron Binding Capacity” value worked out at 247.02 ± 4.93 µg/dL. Also, the WBC in data set [6] was 5.70 ± 0.40 10^3/μL. In addition, in data set [7], the H2O2-induced cell death result is listed as “significantly reversed H2O2-induced cell death; also recorded: protected cells against H2O2 induced cell death”.
